The values below come from article PMC6615598, “Novel antibiotics effective against gram-positive and -negative multi-resistant bacteria with limited resistance” (PLoS Biology, 2019).

One experiment deals with S. aureus Mu3 (MRSA). Briefly: microbe, parasite or virus in culture. The conditions noted are these: S. aureus Mu3 (MRSA); broth microdilution; 3 independent experiments. How it is done:
(§1) (10−4 M final concentrations). At selected time intervals, 100 μl of reaction mixture was collected, quenched by 200 μl 95% EtOH, and adjusted at pH 2 to prevent peptide adsorption to serum proteins. […] Supernatants were analyzed by RP-HPLC on an Xbridge C18 column with a linear gradient of water, 0.08% TFA, and acetonitrile with 1% TFA. HPLC peak areas were used to calculate the percentages of intact compound remaining at the various time points. MIC and MBC values were determined in triplicate in many ESKAPE clinical isolates, including a dozen MDR S. aureus, by the broth microdilution method. Peptidomimetics and antibiotics were assayed in a concentration range of 1 to 128 μM. The bacterial inoculum (5 × 10^5 colony-forming units [CFUs]/well) was prepared in MHB or CAMHB (150 μl). A Biotek Synergy 2 spectrophotometer was used to record the results after 18–20 h incubation at 35°C (±2°C). […] After every hour of culture for 4 h, serial dilutions were plated on BHI plates and incubated overnight at 37°C, and then the CFUs were counted and expressed as log CFU/ml. Phosphate-buffered saline (PBS)-exposed S. aureus MRSA was included as a control.

The test system of a further experiment is S. aureus N315 (MRSA). In words: microbe, parasite or virus in culture. On the procedure: as §1
For a further experiment, the system named is S. aureus Newman. Briefly: microbe, parasite or virus in culture. Particulars: S. aureus Newman; broth microdilution; 3 independent experiments. On the procedure: as §1
A general note: In broth dilution the organism is exposed to a series of concentrations in liquid medium.

The next experiment deals with Escherichia coli K12. Particulars: E. coli K12; broth microdilution; 3 independent experiments. On the procedure: as §1
The subject of the next experiment is P. aeruginosa 15643. Briefly: microbe, parasite or virus in culture. On the procedure:
(§2) For 15 d in MHB, MICs were determined daily for each pseudopeptide and their antibiotic controls. This was done using cells from the well in which the compound concentration was one-half of the MIC (1/2MIC). For each compound, the 1/2MIC well from the previous day’s MIC assay plate was re-suspended and the bacteria grown to a density of about 10^8 cells ml−1. The suspension was diluted in MHB or CAMHB (10^6 cells/ml) and then used to determine the MIC of the same compound determined by micro broth dilution. All MIC measurements were performed in duplicate. Aliquots of the 5 × 10^4 cell/ml dilutions for each 1/2MIC well were periodically plated on MHB and incubated at 35°C for 18 h to verify cell density by colony counts and for visual inspection of colony phenotypes. To control compound stability, peptide solution MICs were determined during and at the end of the 15 d and were compared to cells unexposed to antibiotics. In vivo resistance was also assessed in treated mice (1.5 mg.kg^−1) for 4 d (sepsis) or 6 d (skin abscesses). […] The broth microdilution method was performed as per EUCAST recommendations on 5 independent colonies per mouse (3 mice per set, 15 colonies per drug tested). For severe sepsis and subcutaneous abscesses, in vivo resistance was determined by plating aliquots of crude kidney extracts or abscesses on plates containing 1-, 2-, 4-, or 8-fold the peptide MICs 7 or 3 d post infections, respectively.

The test system of the next experiment is E. coli MCR1. Briefly: microbe, parasite or virus in culture. On the procedure: as §2
Another experiment concerns E. coli K12. In words: microbe, parasite or virus in culture. On the procedure: as §2
The next experiment deals with E. coli 13090. Briefly: microbe, parasite or virus in culture. How it is done:
as §2

A further experiment relates to MSSA (Newman). Briefly: microbe, parasite or virus in culture. Particulars: for MIC: Staphylococcus aureus. On the procedure:
as §2

The next experiment has as its system MRSA (Mu3). Briefly: microbe, parasite or virus in culture. On the procedure: as §2
The next experiment concerns P. aeruginosa LESB58. In words: Cutaneous abscess mouse model (CFU). Particulars: cutaneous abscesses induced by P. aeruginosa in mice; repeated doses post-infection, 9 mg/kg; second data set; individual values. The format is in vivo, mice. On the procedure: For the cutaneous abscess model, the mice were randomly divided into 5 sets. The mice were anesthetized with isoflurane, their dorsal fur shaved, and their skin disinfected with 70% ethanol. An overnight culture of S. aureus MRSA or P. aeruginosa LESB58 was washed with 0.9% NaCl, and then a subcutaneous injection of 2 × 10^9 CFUs and an equal amount of sterile Cytodex microcarrier beads (20 mg.ml^−1, Sigma) for S. aureus MRSA, or 10^8 CFUs for P. aeruginosa were injected into the shaved area. […] Mice were monitored every day and then euthanized with CO2 on Day 6 or on Day 3. Abscesses were excised, measured, and homogenized in PBS using an Ultra-Turax. Serial dilutions of the samples were plated on BHI (MRSA) or 2YT medium (LESB58) plates and then incubated overnight at 37°C. Afterward, the CFUs were counted and expressed as log CFU/ml. Dermonecrosis areas were calculated according to the formula π × L × W. ATP levels were determined with an ATP assay kit (Promega) according to manufacturer instructions on sets of 5 colonies harboring the SCV phenotype, and sets of 5 colonies harboring a normal phenotype, after growth on BHI plates.

Converted amounts (≈) assume the structure as drawn. “And” between values parts separate entries of the source, which are not always exact repeats. Equal values may be shown once.

Regarding nisin, the MIC in the experiment on S. aureus Mu3 (MRSA) is 8 (32) μM; in the experiment with S. aureus N315 (MRSA) (S. aureus N315 (MRSA), broth microdilution, 3 independent experiments), 8 (32) μM; with S. aureus Newman, 8 (32) μM; with Escherichia coli K12, 4 (16) μM.
Consider `C[C@@H]1O[C@@H]1P(=O)(O)O` [Fosfomycin, fosfomycin, reference compound], for which the MIC was found to be 0.027 g/L against P. aeruginosa 15643 (P. aeruginosa 15643, d0 of serial passages); 200 µM in the experiment with P. aeruginosa 15643 (Pseudomonas aeruginosa, 15643); 0.027 g/L with E. coli MCR1 (E. coli MCR1, d0 of serial passages); 200 µM against E. coli MCR1 (Escherichia coli, MCR1); 0.027 g/L against E. coli K12 (E. coli K12, d0 of serial passages); 200 µM in the experiment on E. coli K12 (Escherichia coli, K12). Further, the MIC in the experiment with E. coli 13090 (E. coli 13090, d0 of serial passages) was found to be 0.027 g/L; in the experiment with E. coli 13090 (Escherichia coli, 13090), 200 µM.
On to `CO[C@H]1/C=C/O[C@@]2(C)Oc3c(C)c(O)c4c(O)c(c(/C=N/N5CCN(C)CC5)c(O)c4c3C2=O)NC(=O)/C(C)=C\C=C\[C@H](C)[C@H](O)[C@@H](C)[C@@H](O)[C@@H](C)[C@H](OC(C)=O)[C@@H]1C` [Rifampicin, rifampicin], for which the “Increase of MIC after 2 weeks of serial passages” value in the experiment with MSSA (Newman) (S. aureus) is “about 30,000 fold”. The MIC in the experiment on MSSA (Newman) (MSSA (Newman), d0 of serial passages) was 0.03 µM (≈ 0.0247 µg/mL); against MSSA (Newman) (MSSA|NEWMAN, d14 of serial passages at sub-MIC), 1020 µM (≈ 843 µg/mL); against MRSA (Mu3) (MRSA (Mu3), d14 of serial passages at sub-MIC), 1,024 (843) μM; against MRSA (Mu3) (Staphylococcus aureus, MRSA), 1020 µM (≈ 843 µg/mL).
On to Colistine, for which the “CFU counts per abscess” value in the experiment with P. aeruginosa LESB58 was 3.8 log Cfu/ml and 4 log Cfu/ml and 4.8 log Cfu/ml and 4.6 log Cfu/ml.
For the compound `COc1cccc(OC)c1C(=O)N[C@@H]1C(=O)N2[C@@H]1SC(C)(C)[C@@H]2C(=O)O` [Methicillin, methicillin], the MIC in the experiment with S. aureus N315 (MRSA) (Staphylococcus aureus, MRSA) turned out to be 32 µM.
